How the values were obtained:
Conditions in all cases: Compound concentration 1000.0 nM
[1] = biological target: Serine/threonine-protein kinase 32B (Homo sapiens) (UniProt Q9NY57)
[2] = biological target: Serine/threonine-protein kinase haspin (Homo sapiens) (UniProt Q8TF76)
[3] = biological target: Phosphatidylinositol 4-kinase beta (Homo sapiens) (UniProt Q9UBF8)
[4] = biological target: Discoidin domain-containing receptor 2 (Homo sapiens) (UniProt Q16832)
[5] = biological target: TGF-beta receptor type-2 (Homo sapiens) (UniProt P37173)
TGF-beta receptor type-2 (Homo sapiens), sequence (P37173 whole entry): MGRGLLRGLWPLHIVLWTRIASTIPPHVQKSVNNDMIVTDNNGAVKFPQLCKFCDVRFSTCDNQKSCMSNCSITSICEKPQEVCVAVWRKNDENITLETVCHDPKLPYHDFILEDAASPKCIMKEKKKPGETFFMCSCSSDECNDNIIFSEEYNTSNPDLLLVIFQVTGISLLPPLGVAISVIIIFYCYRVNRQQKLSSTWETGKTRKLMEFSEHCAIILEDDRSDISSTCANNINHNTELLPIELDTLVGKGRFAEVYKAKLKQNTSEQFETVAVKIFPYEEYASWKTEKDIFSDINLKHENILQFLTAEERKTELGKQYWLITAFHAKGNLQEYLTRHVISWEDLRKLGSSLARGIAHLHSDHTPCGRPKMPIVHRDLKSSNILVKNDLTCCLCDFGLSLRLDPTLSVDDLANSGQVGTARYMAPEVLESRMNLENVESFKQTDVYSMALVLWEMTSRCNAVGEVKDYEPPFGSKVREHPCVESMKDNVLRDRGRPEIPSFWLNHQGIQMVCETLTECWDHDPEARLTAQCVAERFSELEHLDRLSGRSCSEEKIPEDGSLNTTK

[6] = test system: Proto-oncogene tyrosine-protein kinase receptor Ret (Homo sapiens), P07949 [M918T]
Proto-oncogene tyrosine-protein kinase receptor Ret (Homo sapiens), P07949 [M918T], sequence (P07949 whole entry M918T): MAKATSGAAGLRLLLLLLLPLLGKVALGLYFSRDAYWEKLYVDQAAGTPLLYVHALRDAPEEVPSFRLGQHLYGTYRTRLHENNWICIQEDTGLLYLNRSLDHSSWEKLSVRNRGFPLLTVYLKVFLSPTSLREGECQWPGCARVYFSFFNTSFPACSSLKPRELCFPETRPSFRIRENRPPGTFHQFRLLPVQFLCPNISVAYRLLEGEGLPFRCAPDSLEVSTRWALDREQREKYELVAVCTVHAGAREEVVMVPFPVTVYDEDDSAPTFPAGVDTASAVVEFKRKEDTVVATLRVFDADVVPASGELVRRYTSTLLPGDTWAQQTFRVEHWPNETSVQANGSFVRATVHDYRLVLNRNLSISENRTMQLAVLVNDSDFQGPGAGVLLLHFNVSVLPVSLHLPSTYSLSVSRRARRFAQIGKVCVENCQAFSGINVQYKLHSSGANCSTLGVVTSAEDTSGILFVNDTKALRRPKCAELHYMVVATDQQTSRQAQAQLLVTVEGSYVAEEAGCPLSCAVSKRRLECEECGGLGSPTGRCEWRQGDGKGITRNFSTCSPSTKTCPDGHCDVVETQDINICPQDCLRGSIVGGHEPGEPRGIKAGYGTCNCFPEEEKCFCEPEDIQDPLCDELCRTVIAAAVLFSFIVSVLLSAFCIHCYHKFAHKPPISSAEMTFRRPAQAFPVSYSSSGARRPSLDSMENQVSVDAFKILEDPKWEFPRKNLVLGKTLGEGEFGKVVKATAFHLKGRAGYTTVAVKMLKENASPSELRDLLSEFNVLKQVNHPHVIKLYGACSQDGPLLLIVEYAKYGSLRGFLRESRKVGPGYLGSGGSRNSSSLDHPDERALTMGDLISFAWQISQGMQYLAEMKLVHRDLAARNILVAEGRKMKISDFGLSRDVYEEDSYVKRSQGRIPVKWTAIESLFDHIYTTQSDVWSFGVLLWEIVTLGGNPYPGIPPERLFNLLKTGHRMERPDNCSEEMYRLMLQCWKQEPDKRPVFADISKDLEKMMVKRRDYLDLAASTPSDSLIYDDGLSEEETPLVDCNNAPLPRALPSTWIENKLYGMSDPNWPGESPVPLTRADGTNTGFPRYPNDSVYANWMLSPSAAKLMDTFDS

[7] = biological target: Serine/threonine-protein kinase 26 (Homo sapiens) (UniProt Q9P289)
[8] = biological target: Receptor-interacting serine/threonine-protein kinase 4 (Homo sapiens) (UniProt P57078)
[9] = biological target: Ephrin type-A receptor 4 (Homo sapiens) (UniProt P54764)
[10] = test system: Receptor-type tyrosine-protein kinase FLT3 (Homo sapiens), P36888 [K663Q]
[11] = biological target: Citron Rho-interacting kinase (Homo sapiens) (UniProt O14578)
[12] = biological target: Angiopoietin-1 receptor (Homo sapiens) (UniProt Q02763)
[13] = biological target: Serine/threonine-protein kinase 38 (Homo sapiens) (UniProt Q15208)
[14] = biological target: Ribosomal protein S6 kinase alpha-4 (Homo sapiens) (UniProt O75676)
[15] = test system: Phosphatidylinositol 4,5-bisphosphate 3-kinase catalytic subunit alpha isoform (Homo sapiens), P42336 [E545K]
[16] = biological target: Tyrosine-protein kinase Mer (Homo sapiens) (UniProt Q12866)
[17] = biological target: Serine/threonine-protein kinase SIK2 (Homo sapiens) (UniProt Q9H0K1)
[18] = biological target: Receptor-type tyrosine-protein kinase FLT3 (Homo sapiens) (UniProt P36888)
[19] = test system: Mast/stem cell growth factor receptor Kit (Homo sapiens), P10721 [V559D]
[20] = biological target: Serine/threonine-protein kinase MAK (Homo sapiens) (UniProt P20794)
[21] = test system: eIF-2-alpha kinase GCN2 (Homo sapiens), Q9P2K8 [S808G]
[22] = biological target: Peripheral plasma membrane protein CASK (Homo sapiens) (UniProt O14936)
[23] = biological target: Casein kinase I isoform epsilon (Homo sapiens) (UniProt P49674)
[24] = biological target: Wee1-like protein kinase (Homo sapiens) (UniProt P30291)
[25] = biological target: Serine/threonine-protein kinase STK11 (Homo sapiens) (UniProt Q15831)
Serine/threonine-protein kinase STK11 (Homo sapiens), sequence (Q15831 whole entry): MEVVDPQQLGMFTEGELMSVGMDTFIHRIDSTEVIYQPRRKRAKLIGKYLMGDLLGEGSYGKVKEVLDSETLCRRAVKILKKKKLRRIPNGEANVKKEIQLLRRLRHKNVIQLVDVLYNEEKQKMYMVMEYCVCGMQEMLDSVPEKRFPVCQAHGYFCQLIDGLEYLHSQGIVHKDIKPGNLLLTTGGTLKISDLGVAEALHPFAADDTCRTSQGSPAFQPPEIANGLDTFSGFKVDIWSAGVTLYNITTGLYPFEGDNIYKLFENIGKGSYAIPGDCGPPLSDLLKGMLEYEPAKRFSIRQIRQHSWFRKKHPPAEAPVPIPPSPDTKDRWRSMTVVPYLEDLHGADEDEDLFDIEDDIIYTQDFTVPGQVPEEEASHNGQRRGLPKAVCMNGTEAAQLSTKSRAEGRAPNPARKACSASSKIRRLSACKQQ

[26] = biological target: Mitogen-activated protein kinase kinase kinase 3 (Homo sapiens) (UniProt Q99759)
Mitogen-activated protein kinase kinase kinase 3 (Homo sapiens), sequence (Q99759 whole entry): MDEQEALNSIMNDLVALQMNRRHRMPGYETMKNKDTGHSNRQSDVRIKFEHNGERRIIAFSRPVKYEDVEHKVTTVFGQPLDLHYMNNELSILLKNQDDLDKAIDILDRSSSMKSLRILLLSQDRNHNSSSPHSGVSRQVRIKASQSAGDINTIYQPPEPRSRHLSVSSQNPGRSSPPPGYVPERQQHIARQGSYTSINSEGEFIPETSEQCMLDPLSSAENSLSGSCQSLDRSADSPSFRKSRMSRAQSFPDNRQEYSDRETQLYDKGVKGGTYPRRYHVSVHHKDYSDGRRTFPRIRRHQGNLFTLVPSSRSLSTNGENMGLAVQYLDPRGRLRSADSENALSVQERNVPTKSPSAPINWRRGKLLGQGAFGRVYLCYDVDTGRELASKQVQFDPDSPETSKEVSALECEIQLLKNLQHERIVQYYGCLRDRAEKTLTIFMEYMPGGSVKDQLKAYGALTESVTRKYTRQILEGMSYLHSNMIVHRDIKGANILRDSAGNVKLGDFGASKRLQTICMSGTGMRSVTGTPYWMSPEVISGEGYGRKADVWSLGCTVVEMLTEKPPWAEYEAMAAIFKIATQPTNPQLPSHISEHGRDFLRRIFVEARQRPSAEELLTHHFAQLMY

[27] = biological target: Dual serine/threonine and tyrosine protein kinase (Homo sapiens) (UniProt Q6XUX3)
[28] = biological target: Serine/threonine-protein kinase ULK1 (Homo sapiens) (UniProt O75385)
[29] = biological target: Cyclin-dependent kinase 4 (Homo sapiens) (UniProt P11802)
Cyclin-dependent kinase 4 (Homo sapiens), sequence (P11802 whole entry): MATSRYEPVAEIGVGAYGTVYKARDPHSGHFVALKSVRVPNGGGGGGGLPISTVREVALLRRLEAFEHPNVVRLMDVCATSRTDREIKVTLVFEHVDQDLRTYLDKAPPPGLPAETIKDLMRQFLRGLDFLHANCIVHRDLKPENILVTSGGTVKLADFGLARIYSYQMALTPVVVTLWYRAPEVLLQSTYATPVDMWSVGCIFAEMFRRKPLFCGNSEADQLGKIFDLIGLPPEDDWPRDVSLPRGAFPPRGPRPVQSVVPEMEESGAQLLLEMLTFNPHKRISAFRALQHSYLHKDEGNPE

[30] = test system: Tyrosine-protein kinase ABL1 (Homo sapiens), P00519 [H396P]
[31] = test system: Receptor-type tyrosine-protein kinase FLT3 (Homo sapiens), P36888 [UNDEFINED MUTATION]
[32] = test system: Tyrosine-protein kinase ABL1 (Homo sapiens), P00519 [T315I]
[33] = biological target: Receptor-type tyrosine-protein kinase FLT3 (Homo sapiens) (UniProt P36888); remark: listed apart in the source
[34] = biological target: Mitogen-activated protein kinase kinase kinase 10 (Homo sapiens) (UniProt Q02779)
[35] = biological target: Serine/threonine-protein kinase BRSK2 (Homo sapiens) (UniProt Q8IWQ3)
[36] = biological target: Mitogen-activated protein kinase kinase kinase 11 (Homo sapiens) (UniProt Q16584)
[37] = biological target: MAP kinase-activated protein kinase 2 (Homo sapiens) (UniProt P49137)
MAP kinase-activated protein kinase 2 (Homo sapiens), sequence (P49137 whole entry, looked up): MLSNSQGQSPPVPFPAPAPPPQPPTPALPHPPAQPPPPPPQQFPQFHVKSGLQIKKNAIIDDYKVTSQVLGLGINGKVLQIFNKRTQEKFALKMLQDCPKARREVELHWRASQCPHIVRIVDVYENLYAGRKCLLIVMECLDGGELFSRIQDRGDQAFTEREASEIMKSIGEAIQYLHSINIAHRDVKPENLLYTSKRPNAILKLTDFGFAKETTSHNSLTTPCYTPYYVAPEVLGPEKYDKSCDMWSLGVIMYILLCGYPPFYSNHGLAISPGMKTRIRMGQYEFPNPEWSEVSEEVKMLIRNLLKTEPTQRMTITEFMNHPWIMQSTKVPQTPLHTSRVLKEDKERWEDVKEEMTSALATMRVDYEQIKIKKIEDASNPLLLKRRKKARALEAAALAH

[38] = biological target: Dual specificity testis-specific protein kinase 1 (Homo sapiens) (UniProt Q15569)
Dual specificity testis-specific protein kinase 1 (Homo sapiens), sequence (Q15569 whole entry, looked up): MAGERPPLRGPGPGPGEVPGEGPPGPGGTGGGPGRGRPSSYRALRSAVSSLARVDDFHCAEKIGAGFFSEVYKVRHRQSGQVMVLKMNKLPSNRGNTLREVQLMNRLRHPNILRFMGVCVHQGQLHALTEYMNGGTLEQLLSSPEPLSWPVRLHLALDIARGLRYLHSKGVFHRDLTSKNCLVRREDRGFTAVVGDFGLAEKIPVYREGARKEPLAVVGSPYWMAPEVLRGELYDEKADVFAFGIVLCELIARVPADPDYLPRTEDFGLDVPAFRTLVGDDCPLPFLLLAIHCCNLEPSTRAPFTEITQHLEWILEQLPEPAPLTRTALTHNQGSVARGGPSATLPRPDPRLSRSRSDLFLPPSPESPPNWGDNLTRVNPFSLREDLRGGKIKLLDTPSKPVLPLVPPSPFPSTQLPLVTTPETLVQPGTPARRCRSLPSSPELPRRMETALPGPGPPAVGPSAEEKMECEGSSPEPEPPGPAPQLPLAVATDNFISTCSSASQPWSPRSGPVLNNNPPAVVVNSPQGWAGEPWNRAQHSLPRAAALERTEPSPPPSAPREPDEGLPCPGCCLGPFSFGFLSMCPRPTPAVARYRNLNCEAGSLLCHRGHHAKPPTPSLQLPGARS

[39] = biological target: Serine/threonine-protein kinase 25 (Homo sapiens) (UniProt O00506)
[40] = biological target: Mitogen-activated protein kinase 10 (Homo sapiens) (UniProt P53779)
[41] = biological target: Mitogen-activated protein kinase kinase kinase 5 (Homo sapiens) (UniProt Q99683)
[42] = biological target: Ribosomal protein S6 kinase alpha-5 (Homo sapiens) (UniProt O75582)
[43] = biological target: Serine/threonine-protein kinase DCLK1 (Homo sapiens) (UniProt O15075)
[44] = biological target: Myosin-IIIb (Homo sapiens) (UniProt Q8WXR4)
[45] = biological target: Maternal embryonic leucine zipper kinase (Homo sapiens) (UniProt Q14680)

Measured: residual activity

Phosphatidylinositol 4-kinase beta (Homo sapiens), sequence (Q9UBF8 2-816 limits assumed): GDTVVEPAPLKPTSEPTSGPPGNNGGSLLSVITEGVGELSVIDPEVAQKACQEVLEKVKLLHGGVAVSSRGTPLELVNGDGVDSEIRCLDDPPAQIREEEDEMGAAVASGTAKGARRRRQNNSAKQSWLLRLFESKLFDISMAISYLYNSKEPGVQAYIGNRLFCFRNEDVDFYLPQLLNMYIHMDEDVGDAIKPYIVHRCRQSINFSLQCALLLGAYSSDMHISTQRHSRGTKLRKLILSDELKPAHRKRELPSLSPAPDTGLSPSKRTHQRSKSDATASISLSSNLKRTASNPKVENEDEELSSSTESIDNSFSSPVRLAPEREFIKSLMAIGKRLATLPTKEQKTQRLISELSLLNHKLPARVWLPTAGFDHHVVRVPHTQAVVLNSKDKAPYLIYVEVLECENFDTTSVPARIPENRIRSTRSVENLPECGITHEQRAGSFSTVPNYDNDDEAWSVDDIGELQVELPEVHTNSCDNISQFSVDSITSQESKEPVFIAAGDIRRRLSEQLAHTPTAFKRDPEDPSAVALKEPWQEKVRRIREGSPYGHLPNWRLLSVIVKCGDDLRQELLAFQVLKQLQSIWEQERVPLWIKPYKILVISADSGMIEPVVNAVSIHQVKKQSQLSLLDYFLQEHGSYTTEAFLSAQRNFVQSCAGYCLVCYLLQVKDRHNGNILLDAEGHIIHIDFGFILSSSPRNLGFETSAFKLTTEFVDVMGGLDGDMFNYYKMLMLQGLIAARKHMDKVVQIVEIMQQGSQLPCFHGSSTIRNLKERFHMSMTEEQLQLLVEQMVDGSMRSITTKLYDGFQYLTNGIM

CSc1cccnc1N1CCN(Cc2nc3ccccc3[nH]2)CC1 [A-769]
inactive: [1] 100% | [2] 100% | [3] 73% | [4] 89% | [5] 99% | [6] 99% | [7] 95% | [8] 66% | [9] 100% | [10] 93% | [11] 100% | [12] 100% | [13] 88% | [14] 94% | [15] 74% | [16] 80% | [17] 100% | [18] 100% | [19] 96% | [20] 100% | [21] 100% | [22] 100% | [23] 91% | [24] 100% | [25] 100% | [26] 83% | [27] 76% | [28] 88% | [29] 77% | [30] 77% | [31] 100% | [32] 99% | [33] 91% | [34] 100% | [35] 100% | [36] 100% | [37] 80% | [38] 100% | [39] 100% | [40] 66% | [41] 98% | [42] 100% | [43] 82% | [44] 100%
active: [45] 46%

c1ccc(N2CCN(Cc3nc4ccccc4[nH]3)CC2)nc1 [ABT-724]
inactive: [1] 100% | [2] 100% | [3] 100% | [4] 100% | [5] 88% | [6] 100% | [7] 100% | [8] 100% | [9] 100% | [10] 100% | [11] 88% | [12] 94% | [13] 89% | [14] 100% | [15] 59% | [16] 90% | [17] 100% | [18] 100% | [19] 100% | [20] 100% | [21] 65% | [22] 97% | [23] 100% | [24] 100% | [25] 70% | [26] 100% | [27] 100% | [28] 100% | [29] 100% | [30] 100% | [31] 100% | [32] 100% | [33] 100% | [34] 93% | [35] 100% | [36] 100% | [37] 100% | [38] 97% | [39] 94% | [40] 100% | [41] 93% | [42] 100% | [43] 100% | [44] 95% | [45] 100%

Reference: ChEMBL document CHEMBL4507260 (2021)
